Assay results from patent US11149036B2, “3-(1H-pyrazol-4-yl)pyridine allosteric modulators of the M4 muscarinic acetylcholine receptor” (Merck Sharp & Dohme Corp., priority 2017, dated 2021).

molecular target: T1, human M4 muscarinic acetylcholine receptor (Homo sapiens, UniProt P08173); experiment: human FLIPR-based M4 PAM assay (CHO-K1 cells with human M4 receptor and Gaqi5, calcium dye fluorescence); assay type: cell-based; settings: inflection point (IP) of dose response curve, acetylcholine added at 20% of maximum response, read-out: M4 FLIPPR Hu IP
T1 construct: expressed in transfected cells; host or cells: CHO-K1
T1 sequence (P08173 1-479): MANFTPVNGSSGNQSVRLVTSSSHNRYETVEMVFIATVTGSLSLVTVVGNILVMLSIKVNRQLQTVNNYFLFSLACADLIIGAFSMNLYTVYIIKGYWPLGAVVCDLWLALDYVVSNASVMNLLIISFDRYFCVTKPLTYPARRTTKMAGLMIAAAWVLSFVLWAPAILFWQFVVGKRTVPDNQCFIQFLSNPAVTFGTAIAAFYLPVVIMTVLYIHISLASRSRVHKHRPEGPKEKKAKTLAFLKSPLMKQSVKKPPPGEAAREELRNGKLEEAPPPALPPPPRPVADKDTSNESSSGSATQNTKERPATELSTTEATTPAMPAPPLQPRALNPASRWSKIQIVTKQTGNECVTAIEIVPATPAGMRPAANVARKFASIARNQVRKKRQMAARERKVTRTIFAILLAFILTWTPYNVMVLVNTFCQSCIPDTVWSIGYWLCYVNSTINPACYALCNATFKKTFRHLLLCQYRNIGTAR
Outline: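 CHO-K1 cells stably expressing human M4 with chimeric Gaqi5, calcium-dye loaded ~1 h at 37° C; compound added at increasing concentrations 4 min before acetylcholine at an EC20 concentration (sometimes a further EC70 addition).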

Row | EC50 | Compound
1 | 41 nM | Cn1cnc2cc(-c3nc(C#N)ccc3-c3cnn(CC4C[C@H](F)[C@@H](F)C4)c3)ccc21 [Example 72, 5-(1-(((3S,4S)-3,4-difluorocyclopentyl)methyl)-1H-pyrazol-4-yl)-6-(1-methyl-1H-benzo[d]imidazol-5-yl)picolinonitrile]
2 | 41 nM | CC1(Cn2cc(-c3ccc(C#N)nc3-c3cnc4c(c3)C(=O)OC4)cn2)CCCC1 [Example 73, 5-(1-((1-methylcyclopentyl)methyl)-1H-pyrazol-4-yl)-6-(5-oxo-5,7-dihydrofuro [3,4-b]pyridin-3-yl) picolinonitrile]
3 | 58 nM | CC1(Cn2cc(-c3ccc(C#N)nc3-c3ccn4c(F)cnc4c3)cn2)CCCC1 [Example 74, 6-(3-fluoroimidazo[1,2-a]pyridin-7-yl)-5-(1-((1-methylcyclopentyl)methyl)-1H-pyrazol-4-yl)picolinonitrile]
4 | 31 nM | CC1(Cn2cc(-c3ccc(C#N)nc3-c3ccn4ncnc4c3)cn2)CCCC1 [Example 75, 6-([1,2,4]triazolo[1,5-a]pyridin-7-yl)-5-(1-((1-methylcyclopentyl)methyl)-1H-pyrazol-4-yl)picolinonitrile]
5 | 23 nM | CC1(Cn2cc(-c3ccc(C#N)nc3-c3ccn4cc(C(F)F)nc4c3)cn2)CCCC1 [Example 76, 6-(2-(difluoromethyl)imidazo [1,2-a]pyridin-7-yl)-5-(1-((1-methylcyclopentyl)methyl)-1H-pyrazol-4-yl)picolinonitrile]
6 | 66 nM | CC1(Cn2cc(-c3ccc(C#N)nc3-c3ccn4cncc4c3)cn2)CCCC1 [Example 77, 6-(imidazo[1,5-a]pyridin-7-yl)-5-(1-((1-methylcyclopentyl)methyl)-1H-pyrazol-4-yl)picolinonitrile]
7 | 29 nM | CC1(Cn2cc(-c3ccc(C#N)nc3-c3ccn4nc(CF)nc4c3)cn2)CCCC1 [Example 78, 6-(2-(fluoromethyl)-[1,2,4]triazolo[1,5-a]pyridin-7-yl)-5-(1-((1-methylcyclopentyl)methyl)-1H-pyrazol-4-yl)picolinonitrile]
8 | 80 nM | CC1(Cn2cc(-c3ccc(C#N)nc3-c3ccn4nccc4c3)cn2)CCCC1 [Example 79, 5-(1-((1-methylcyclopentyl)methyl)-1H-pyrazol-4-yl)-6-(pyrazolo[1,5-a]pyridin-5-yl) picolinonitrile]
9 | 65 nM | Cc1nc2cc(-c3nc(C#N)ccc3-c3cnn(CC4(C)CCCC4)c3)cnc2o1 [Example 80, 5-(1-((1-methylcyclopentyl)methyl)-1H-pyrazol-4-yl)-6-(2-methyloxazolo[5,4-b]pyridin-6-yl)picolinonitrile]
10 | 82 nM | CC1(Cn2ncc(-c3ccc(C#N)nc3-c3ccn4ccnc4c3)c2Cl)CCCC1 [Example 81, 5-(5-chloro-1-((1-methylcyclopentyl)methyl)-1H-pyrazol-4-yl)-6-(imidazo[1,2-a]pyridin-7-yl)picolinonitrile]
11 | 20 nM | CC1(Cn2cc(-c3ccc(C#N)nc3-c3ccn4cc(CO)nc4c3)cn2)CCCC1 [Example 82, 6-(2-(hydroxymethyl)imidazo [1,2-a]pyridin-7-yl)-5-(1-((1-methylcyclopentyl)methyl)-1H-pyrazol-4-yl)picolinonitrile]
12 | 26 nM | Cc1cn2ccc(-c3nc(C#N)ccc3-c3cnn(CC4C[C@@H](F)[C@H](F)C4)c3)cc2n1 [Example 83, 5-(1-(((3R,4R)-3,4-difluorocyclopentyl)methyl)-1H-pyrazol-4-yl)-6-(2-methylimidazo[1,2-a]pyridin-7-yl)picolinonitrile]
13 | 33 nM | N#Cc1ccc(-c2cnn(CC3C[C@@H](F)[C@H](F)C3)c2)c(-c2ccc3cccnc3c2)n1 [Example 84, 5-(1-(((3R,4R)-3,4-difluorocyclopentyl)methyl)-1H-pyrazol-4-yl)-6-(quinolin-7-yl)picolinonitrile]
14 | 37 nM | Cn1cnc2cc(-c3nc(C#N)c(F)cc3-c3cnn(CC4(C)CCCC4)c3)cnc21 [Example 85, 3-fluoro-6-(3-methyl-3H-imidazo[4,5-b]pyridin-6-yl)-5-(1-((1-methylcyclopentyl)methyl)-1H-pyrazol-4-yl)picolinonitrile]
15 | 18 nM | Cn1cnc2cc(-c3nc(C#N)c(F)cc3-c3cnn(CC4(C)CCCC4)c3)ccc21 [Example 86, 3-fluoro-6-(1-methyl-1H-benzo[d]imidazol-5-yl)-5-(1-((1-methylcyclopentyl)methyl)-1H-pyrazol-4-yl)picolinonitrile]
16 | 11 nM | CC1(Cn2cc(-c3cc(F)c(C#N)nc3-c3ccn4ccnc4c3)cn2)CCCC1 [Example 87, 3-fluoro-6-(imidazo[1,2-a]pyridin-7-yl)-5-(1-((1-methylcyclopentyl)methyl)-1H-pyrazol-4-yl)picolinonitrile]

Row | EC50 | Compound
17 | 24 nM | Cc1cn2ccc(-c3nc(C#N)c(F)cc3-c3cnn(CC4(C)CCCC4)c3)cc2n1 [Example 88, 3-fluoro-5-(1-((1-methylcyclopentyl)methyl)-1H-pyrazol-4-yl)-6-(2-methylimidazo [1,2-a]pyridin-7-yl)picolinonitrile]
18 | 67 nM | Cn1cc2ccc(-c3nc(C#N)c(F)cc3-c3cnn(CC4(F)CCCC4)c3)cc2n1 [Example 89, 3-fluoro-5-(1-((1-fluorocyclopentyl)methyl)-1H-pyrazol-4-yl)-6-(2-methyl-2H-indazol-6-yl) picolinonitrile]
19 | 42 nM | Cc1nnc2cc(-c3nc(C#N)c(F)cc3-c3cnn(CC4(F)CCCC4)c3)ccn12 [Example 90, 3-fluoro-5-(1-((1-fluorocyclopentyl)methyl)-1H-pyrazol-4-yl)-6-(3-methyl-[1,2,4]triazolo [4,3-a]pyridin-7-yl)picolinonitrile]
20 | 33 nM | N#Cc1nc(-c2ccn3cc(C(F)(F)F)nc3c2)c(-c2cnn(CC3(F)CCCC3)c2)cc1F [Example 91, 3-fluoro-5-(1-((1-fluorocyclopentyl)methyl)-1H-pyrazol-4-yl)-6-(2-(trifluoromethyl)imidazo [1,2-a]pyridin-7-yl)picolinonitrile]
21 | 4 nM | COc1cc2ccc(-c3nc(F)ccc3-c3cnn(CC4(C)CCCC4)c3)cc2nn1 [Example 92, 7-(6-fluoro-3-(1-((1-methylcyclopentyl)methyl)-1H-pyrazol-4-yl)pyridin-2-yl)-3-methoxycinnoline]
22 | 34 nM | Cc1cc(-c2cnn(CC3(C)CCCC3)c2)c(-c2ccn3ccnc3c2)nc1F [Example 93, 7-(6-fluoro-5-methyl-3-(1-((1-methylcyclopentyl)methyl)-1H-pyrazol-4-yl)pyridin-2-yl)imidazo[1,2-a]pyridine]
23 | 35 nM | Cc1cc(-c2cnn(CC3(F)CCCC3)c2)c(-c2ccn3ccnc3c2)nc1F [Example 94, 7-(6-fluoro-3-(1-((1-fluorocyclopentyl)methyl)-1H-pyrazol-4-yl)-5-methylpyridin-2-yl) imidazo[1,2-a]pyridine]
24 | 80 nM | Fc1cnc(-c2ccc3cccnc3c2)c(-c2cnn(CC3(F)CCCC3)c2)c1 [Example 95, 7-(5-fluoro-3-(1-((1-fluorocyclopentyl)methyl)-1H-pyrazol-4-yl)pyridin-2-yl) quinoline]
25 | 35 nM | Cc1cn2ccc(-c3ncc(F)cc3-c3cnn(CC4(F)CCCC4)c3)cc2n1 [Example 96, 7-(5-fluoro-3-(1-((1-fluorocyclopentyl)methyl)-1H-pyrazol-4-yl)pyridin-2-yl)-2-methylimidazo[1,2-a] pyridine]
26 | 68 nM | Cc1nc2cc(-c3ncc(F)cc3-c3cnn(CC4(F)CCCC4)c3)ccn2c1C [Example 97, 7-(5-fluoro-3-(1-((1-fluorocyclopentyl)methyl)-1H-pyrazol-4-yl)pyridin-2-yl)-2,3-dimethylimidazo[1,2-a] pyridine]
27 | 82 nM | Fc1cnc(-c2ccn3cc(C(F)(F)F)nc3c2)c(-c2cnn(CC3(F)CCCC3)c2)c1 [Example 98, 7-(5-fluoro-3-(1-((1-fluorocyclopentyl)methyl)-1H-pyrazol-4-yl)pyridin-2-yl)-2-(trifluoromethyl)imidazo [1,2-a]pyridine]
28 | 83 nM | Cc1nc2cc(-c3ncc(F)cc3-c3cnn(CC4(F)CCCC4)c3)ccc2n1C [Example 99, 5-(5-fluoro-3-(1-((1-fluorocyclopentyl)methyl)-1H-pyrazol-4-yl)pyridin-2-yl)-1,2-dimethyl-1H-benzo[d]imidazole]
29 | 69 nM | O=C1c2cc(-c3ncc(F)cc3-c3cnn(CC4(F)CCCC4)c3)ccc2CN1C1CC1 [Example 101, 2-cyclopropyl-6-(5-fluoro-3-(1-((1-fluorocyclopentyl)methyl)-1H-pyrazol-4-yl)pyridin-2-yl) isoindolin-1-one]
30 | 232 nM | Cc1nc2cc(-c3ncc(F)cc3-c3cnn(CC4C[C@@H](F)[C@H](F)C4)c3)ccc2n1C [Example 102]
31 | 45 nM | CC1(Cn2cc(-c3c(C#N)ccnc3-c3ccc4cccnc4c3)cn2)CCCC1 [Example 103, 3-(1-((1-methylcyclopentyl)methyl)-1H-pyrazol-4-yl)-2-(quinolin-7-yl)isonicotinonitrile]
32 | 20 nM | FC(F)(F)c1ccc(-c2cnn(CC3CCCC3)c2)c(-c2ccc3cccnc3c2)n1 [Example 104, 7-(3-(1-(cyclopentylmethyl)-1H-pyrazol-4-yl)-6-(trifluoromethyl)pyridin-2-yl)quinoline]
